Assays:
[1] = molecular target: Cbl-b (residues 36-427) (Homo sapiens, UniProt Q13191); test: Cbl-b binding assay (SPR, Biacore T200); conditions: 20° C., 1:1 binding model
Method in brief: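 NeutrAvidin capture chip, 20° C; 50 s injections at 50 μl/min, 90-180 s dissociation; 0.3 M NaCl regeneration. Asterisked column: 50 mM NaCl buffer and 30 nM Src kinase in place of 100 mM NaCl and 60 nM Src kinase. 1:1 fit.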

[2] = molecular target: T1, Cbl-b (Homo sapiens, UniProt Q13191); test: Cbl-b inhibition assay (Cbl-b activity assay, FRET, Biological Example 1; 100 mM NaCl, 60 nM Src kinase); type: biochemical; conditions: upper bound stated in text lists; read-out: IC50 values in the Cbl-b inhibition assay of Biological Example 1
Method in brief: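 Here, the E2 UbcH5B, irreversibly linked to Bodipy-fluorescein ubiquitin, binds Cbl-b once Src kinase phosphorylates it; Cbl-b carries an N-terminal biotinylated Avi-tag captured by streptavidin-terbium. An absent FRET signal indicates inhibition.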

[3] = tested on: T-cell; test: IL-2 secretion from T-cells stimulated with anti-CD3 antibody alone (Biological Example 2); type: cell-based; conditions: primary human total T-cells, read-out: IL-2 secretion, Anti-CD3 stimulation, fold change over baseline; for fold induction at 1 µM: 1 μM compound; for fold induction at 8 µM: 8 μM compound
[4] = molecular target: T1, Cbl-b; test: Cbl-b activity assay (Cbl-b inhibition assay), TR-FRET of Cbl-b interaction with UbcH5B-Ub; type: biochemical; conditions: assay buffer with 100 mM NaCl, 60 nM Src kinase; read-out: Cbl-b activity IC50
Method in brief: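 Compound-treated Cbl-b was incubated 1.5 h with Src kinase (60 nM final; 30 nM for asterisked values, which also used 50 mM instead of 100 mM NaCl), 1 mM ATP and 5 mM MgCl2. Binding to fluorescent Ub-loaded UbcH5B (C85K mutant) was then read by TR-FRET after 1 h more.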

[5] = tested on: T-cell; test: IL-2 secretion from T-cells co-stimulated with anti-CD3 and anti-CD28 antibody (Biological Example 2); type: cell-based, human; conditions: Homo sapiens, T-cell, primary human total T-cells, baseline = anti-CD3/anti-CD28 stimulated cells without inhibitor, read-out: IL-2 secretion, Anti-CD3/Anti-CD28 stimulation, fold change over baseline; for fold induction at 0.3 µM: 0.3 μM compound; for fold induction at 1 µM: 1 μM compound; for fold induction at 4 µM: 4 μM compound
Method in brief: (§1)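 Values are fold-change over baseline: readings (IL-2 release, CD25 staining) from inhibitor-treated T-cells divided against untreated cells […]. No detailed procedure stated.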

[6] = tested on: T-cell; test: CD25 cell surface staining on T-cells co-stimulated with anti-CD3 and anti-CD28 antibody (Biological Example 2); type: cell-based, human; conditions: Homo sapiens, T-cell, primary human total T-cells, baseline = anti-CD3/anti-CD28 stimulated cells without inhibitor, read-out: CD25 staining, Anti-CD3/Anti-CD28 stimulation, fold change over baseline; for fold induction at 0.3 µM: 0.3 μM compound; for fold induction at 1 µM: 1 μM compound; for fold induction at 4 µM: 4 μM compound
Method in brief: as §1

[7] = tested on: T-cell; test: CD25 cell surface staining on T-cells stimulated with anti-CD3 antibody alone (Biological Example 2); type: cell-based; conditions: primary human total T-cells, baseline = anti-CD3/anti-CD28 stimulated cells without inhibitor, read-out: CD25 staining, Anti-CD3 stimulation, fold change over baseline; for fold induction at 1 µM: 1 μM compound; for fold induction at 8 µM: 8 μM compound

Chain of Cbl-b (residues 36-427) (Q13191 36-427): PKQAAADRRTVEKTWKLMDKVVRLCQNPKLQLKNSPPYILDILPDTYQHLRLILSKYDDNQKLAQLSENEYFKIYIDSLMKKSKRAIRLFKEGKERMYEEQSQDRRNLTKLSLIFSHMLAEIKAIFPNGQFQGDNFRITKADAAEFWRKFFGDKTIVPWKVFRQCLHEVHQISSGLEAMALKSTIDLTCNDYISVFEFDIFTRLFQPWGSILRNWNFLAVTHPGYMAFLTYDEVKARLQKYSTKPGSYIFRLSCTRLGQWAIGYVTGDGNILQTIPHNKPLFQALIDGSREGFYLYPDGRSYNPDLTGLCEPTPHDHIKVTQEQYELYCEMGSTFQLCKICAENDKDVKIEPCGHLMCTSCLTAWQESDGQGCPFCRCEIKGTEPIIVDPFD
T1 sequence (Q13191 36-427): as above

Compound | Kd [1] [nM] | IC50 [2] [nM] | fold induction at 1 µM [3] | fold induction at 8 µM [3] | IC50 [4] [nM] | fold induction at 0.3 µM [5] | fold induction at 1 µM [5] | fold induction at 4 µM [5] | fold induction at 0.3 µM [6] | fold induction at 1 µM [6] | fold induction at 4 µM [6] | fold induction at 1 µM [7] | fold induction at 8 µM [7]
CC(O)c1cc2c(c(C(F)(F)F)c1)CN(c1cccc([C@H](C)Cc3nncn3C)c1)C2=O (stereo partly drawn) [Compound 436, 6-(1-hydroxyethyl)-2-(3-((R)-1-(4-methyl-4H-1,2,4-triazol-3-yl)propan-2-yl)phenyl)-4-(trifluoromethyl)isoindolin-1-one] | < 100 | ≤ 100 | 0.151 to 0.2 | > 0.201 | < 100 | 2.51 to 5 | 5 to 7.5 | > 7.5 | 1.01 to 1.3 | 1.31 to 1.5 | 1.31 to 1.5 | 0.801 to 1 | > 1
CC(O)c1cc2c(c(C(F)(F)F)c1)CN(c1cccc([C@@](C)(F)C(F)(F)c3nncn3C)c1)C2=O (stereo partly drawn) [Compound 446, 6-(1-hydroxyethyl)-2-(3-((R)-1,1,2-trifluoro-1-(4-methyl-4H-1,2,4-triazol-3-yl)propan-2-yl)phenyl)-4-(trifluoromethyl)isoindolin-1-one] | 100 to 300 | ≤ 100 | 0.051 to 0.1 | > 0.201 | < 100 | 1.01 to 2.5 | 1.01 to 2.5 | 5 to 7.5 | 1.01 to 1.3 | 1.01 to 1.3 | 1.01 to 1.3 | 0.801 to 1 | > 1
Cn1cnnc1C(F)(F)[C@](C)(F)c1cccc(N2Cc3c(cc(CN4CC(F)C4)cc3C(F)(F)F)C2=O)c1 [Compound 451, (R)-6-((3-fluoroazetidin-1-yl)methyl)-2-(3-(1,1,2-trifluoro-1-(4-methyl-4H-1,2,4-triazol-3-yl)propan-2-yl)phenyl)-4-(trifluoromethyl)isoindolin-1-one] | < 100 | ≤ 300 | 0.101 to 0.15 | > 0.201 | 100 to 300 | 1.01 to 2.5 | 5 to 7.5 | > 7.5 | 1.01 to 1.3 | 1.01 to 1.3 | 1.31 to 1.5 | 0.801 to 1 | > 1
Cn1cnnc1C(F)(F)[C@](C)(F)c1cccc(N2Cc3c(cc(CN4CC[C@H](S(C)(=O)=O)C4)cc3C(F)(F)F)C2=O)c1 [Compound 457, 6-(((S)-3-(Methylsulfonyl)pyrrolidin-1-yl)methyl)-2-(3-((R)-1,1,2-trifluoro-1-(4-methyl-4H-1,2,4-triazol-3-yl)propan-2-yl)phenyl)-4-(trifluoromethyl)isoindolin-1-one] | < 100 | ≤ 100 | 0.101 to 0.15 | > 0.201 | < 100 | 2.51 to 5 | 2.51 to 5 | > 7.5 | 1.01 to 1.3 | 1.01 to 1.3 | 1.01 to 1.3 | 0.801 to 1 | > 1
Cn1cnnc1C(F)(F)[C@](C)(F)c1cccc(N2Cc3c(cc(CN4CC[C@@H](S(C)(=O)=O)C4)cc3C(F)(F)F)C2=O)c1 [Compound 458, 6-(((R)-3-(Methylsulfonyl)pyrrolidin-1-yl)methyl)-2-(3-((R)-1,1,2-trifluoro-1-(4-methyl-4H-1,2,4-triazol-3-yl)propan-2-yl)phenyl)-4-(trifluoromethyl)isoindolin-1-one] | < 100 | ≤ 100 | 0.151 to 0.2 | > 0.201 | < 100 | 2.51 to 5 | 5 to 7.5 | > 7.5 | 1.01 to 1.3 | 1.01 to 1.3 | 1.31 to 1.5 | 0.801 to 1 | > 1
Cc1c[nH]nc1C[C@@H](C)c1cccc(N2Cc3c(cc(C(=O)N4C[C@@H](O)C[C@H]4C)cc3C(F)(F)F)C2=O)c1 [Compound 464, 6-((2R,4S)-4-hydroxy-2-methylpyrrolidine-1-carbonyl)-2-(3-((R)-1-(4-methyl-1H-pyrazol-3-yl)propan-2-yl)phenyl)-4-(trifluoromethyl)isoindolin-1-one] | < 100 | ≤ 100 | 0.151 to 0.2 | > 0.201 | < 100 | 1.01 to 2.5 | 2.51 to 5 | > 7.5 | 1.01 to 1.3 | 1.01 to 1.3 | 1.31 to 1.5 | > 1 | > 1
C[C@H](Cc1n[nH]cc1C(F)(F)F)c1cccc(N2Cc3c(cc(C(=O)N4CC[C@H](O)C4)cc3C(F)(F)F)C2=O)c1 [Compound 465, 6-((S)-3-hydroxypyrrolidine-1-carbonyl)-4-(trifluoromethyl)-2-(3-((R)-1-(4-(trifluoromethyl)-1H-pyrazol-3-yl)propan-2-yl)phenyl)isoindolin-1-one] | < 100 | ≤ 100 | 0.051 to 0.1 | 0.151 to 0.2 | < 100 | 1.01 to 2.5 | 1.01 to 2.5 | 2.51 to 5 | 1.01 to 1.3 | 1.01 to 1.3 | 1.01 to 1.3 | 0.801 to 1 | > 1
C[C@@H](c1cccc(N2Cc3c(cccc3C(F)(F)F)C2=O)c1)C(F)(F)c1nncn1C [Compound 467a, (S)-2-(3-(1,1-difluoro-1-(4-methyl-4H-1,2,4-triazol-3-yl)propan-2-yl)phenyl)-4-(trifluoromethyl)isoindolin-1-one] | 301 to 1000 | ≤ 300 | < 0.05 | 0.101 to 0.15 | 100 to 300 | 1.01 to 2.5 | 1.01 to 2.5 | 2.51 to 5 | 1.01 to 1.3 | 1.01 to 1.3 | 1.01 to 1.3 | 0.601 to 0.8 | 0.801 to 1
Cn1cnnc1C[C@H](c1cccc(N2Cc3c(cccc3C(F)(F)F)C2=O)c1)C(F)(F)F [Compound 471a, (R)-2-(3-(1,1,1-trifluoro-3-(4-methyl-4H-1,2,4-triazol-3-yl)propan-2-yl)phenyl)-4-(trifluoromethyl)isoindolin-1-one] | 301 to 1000 | ≤ 300 | 0.051 to 0.1 | 0.101 to 0.15 | 100 to 300 | 1.01 to 2.5 | 1.01 to 2.5 | 1.01 to 2.5 | 1.01 to 1.3 | 1.01 to 1.3 | 1.01 to 1.3 | 0.601 to 0.8 | 0.801 to 1
Cn1cnnc1CC(C)(C)c1cccc(NC(=O)c2cc(C(=O)N3CC[C@H](O)C3)cc(C(F)(F)F)n2)c1 [Compound 475, (S)-4-(3-hydroxypyrrolidine-1-carbonyl)-N-(3-(2-methyl-1-(4-methyl-4H-1,2,4-triazol-3-yl)propan-2-yl)phenyl)-6-(trifluoromethyl)picolinamide] | 100 to 300 | ≤ 100 | 0.101 to 0.15 | > 0.201 | < 100 | 1.01 to 2.5 | 2.51 to 5 | 5 to 7.5 | 1.01 to 1.3 | 1.01 to 1.3 | 1.01 to 1.3 | 0.801 to 1 | > 1
